Our source for the mutagenic call values is PubChem BioAssay AID1259407 (Chemical Carcinogenesis Research Information System (CCRIS), 2018).

Molecules are shown by their SMILES. Activity calls are given as the source filed them. How the calls were made is not given here.

The subject of this data set is CCRIS mutagenicity, Ames/micronucleus/aberration tests. Briefly: CCRIS mutagenicity studies.
[1] abbreviates: Test System: AMES SALMONELLA TYPHIMURIUM, Strain/Indicator: TA98, Metabolic Activation: NONE, Method: STANDARD PLATE.
[2] abbreviates: Test System: AMES SALMONELLA TYPHIMURIUM, Strain/Indicator: TA98, Metabolic Activation: RAT, LIVER, S-9, AROCLOR 1254, Method: STANDARD PLATE.
The mark [3] stands for this setting: Test System: AMES SALMONELLA TYPHIMURIUM, Strain/Indicator: TA100, Metabolic Activation: RAT, LIVER, S-9, PHENOBARBITAL AND 5,6-BENZOFLAVONE, Method: PREINCUBATION
Where [4] appears, read: Test System: AMES SALMONELLA TYPHIMURIUM, Strain/Indicator: TA98, Metabolic Activation: NONE, Method: PREINCUBATION
The mark [5] stands for this setting: Test System: AMES SALMONELLA TYPHIMURIUM, Strain/Indicator: TA100, Metabolic Activation: NONE, Method: PREINCUBATION

As to `c1ccc2c(c1)ccc1c3ccccc3ccc21`, the mutagenic call was “inactive; negative” (Test System: AMES SALMONELLA TYPHIMURIUM, Strain/Indicator: TA97, Metabolic Activation: NONE, Method: STANDARD PLATE); “active; positive” (Test System: AMES SALMONELLA TYPHIMURIUM, Strain/Indicator: TA97, Metabolic Activation: RAT, LIVER, S-9, PCB, Method: STANDARD PLATE); “inactive; negative” under setting [1]; “active; positive” under setting [2]; “active; positive” (Test System: AMES SALMONELLA TYPHIMURIUM, Strain/Indicator: TA98, Metabolic Activation: RAT, LIVER, S-9, PCB, Method: STANDARD PLATE); “inactive; negative” (Test System: AMES SALMONELLA TYPHIMURIUM, Strain/Indicator: TA100, Metabolic Activation: NONE, Method: STANDARD PLATE). Moreover, the mutagenic call is, setting by setting: (Test System: AMES SALMONELLA TYPHIMURIUM, Strain/Indicator: TA100, Metabolic Activation: POOLED HUMAN LIVER MICROSOMES, Method: PREINCUBATION) “inactive; negative”; (Test System: AMES SALMONELLA TYPHIMURIUM, Strain/Indicator: TA100, Metabolic Activation: RAT, LIVER, MICROSOMES, AROCLOR 1254, Method: STANDARD PLATE) “active; positive”; (Test System: AMES SALMONELLA TYPHIMURIUM, Strain/Indicator: TA100, Metabolic Activation: RAT, LIVER, MICROSOMES, CHRYSENE, Method: STANDARD PLATE) “inactive; negative”; (Test System: AMES SALMONELLA TYPHIMURIUM, Strain/Indicator: TA100, Metabolic Activation: RAT, LIVER, MICROSOMES, Method: STANDARD PLATE) “inactive; negative”; (Test System: AMES SALMONELLA TYPHIMURIUM, Strain/Indicator: TA100, Metabolic Activation: RAT, LIVER, S-9, AROCLOR 1254, Method: STANDARD PLATE) “active; positive”; (Test System: AMES SALMONELLA TYPHIMURIUM, Strain/Indicator: TA100, Metabolic Activation: RAT, LIVER, S-9, PCB, Method: STANDARD PLATE) “active; positive”. The mutagenic call under setting [3] was “active; positive”; the mutagenic call (Test System: CHINESE HAMSTER OVARY, Strain/Indicator: CHO-K1-BH4 (HGPRT)/6-THIOGUANINE, Metabolic Activation: NONE, Method: STANDARD PLATE) was “inactive; negative”; the mutagenic call (Test System: CHINESE HAMSTER OVARY, Strain/Indicator: CHO-K1-BH4 (HGPRT)/6-THIOGUANINE, Metabolic Activation: RAT, LIVER, S-9, AROCLOR 1254, Method: STANDARD PLATE) was “active; positive”; the mutagenic call (Test System: CHINESE HAMSTER OVARY, Strain/Indicator: CHO-UV5 (HGPRT)/6-THIOGUANINE, Metabolic Activation: NONE, Method: STANDARD PLATE) is “inactive; negative”; the mutagenic call (Test System: CHINESE HAMSTER OVARY, Strain/Indicator: CHO-UV5 (HGPRT)/6-THIOGUANINE, Metabolic Activation: RAT, LIVER, S-9, AROCLOR 1254, Method: STANDARD PLATE) was “active; positive”; the mutagenic call (Test System: LACZ TRANSGENIC MOUSE (MUTATM MOUSE), Strain/Indicator: LACZ MUTANT FREQUENCY, Method: LIVER, SPLEEN, LUNG, KIDNEY, BONE MARROW, COLON HARVESTED 7 D AFTER LAST DOSE, DNA ISOLATED) is “active; positive; g:c to t:a transversions in all organs”.
In the case of `C1CCNC1`, the mutagenic call is, setting by setting: under setting [4], “inactive; negative”; (Test System: AMES SALMONELLA TYPHIMURIUM, Strain/Indicator: TA98, Metabolic Activation: RAT, LIVER, S-9, PCB, Method: PREINCUBATION) “inactive; negative”; under setting [5], “inactive; negative”; (Test System: AMES SALMONELLA TYPHIMURIUM, Strain/Indicator: TA100, Metabolic Activation: RAT, LIVER, S-9, PCB, Method: PREINCUBATION) “inactive; negative”.
For the compound `O=C(O)CO.[NH2-].[NH2-].[Pt+2]`, the mutagenic call by setting is: under setting [4], “active; positive”; (Test System: AMES SALMONELLA TYPHIMURIUM, Strain/Indicator: TA98, Metabolic Activation: RAT, LIVER, S-9, PHENOBARBITAL AND 5,6-BENZOFLAVONE, Method: PREINCUBATION) “active; positive”; under setting [5], “active; positive”; under setting [3], “active; positive”; (Test System: AMES SALMONELLA TYPHIMURIUM, Strain/Indicator: TA1535, Metabolic Activation: NONE, Method: PREINCUBATION) “inactive; negative”; (Test System: AMES SALMONELLA TYPHIMURIUM, Strain/Indicator: TA1535, Metabolic Activation: RAT, LIVER, S-9, PHENOBARBITAL AND 5,6-BENZOFLAVONE, Method: PREINCUBATION) “inactive; negative”. The mutagenic call (Test System: AMES SALMONELLA TYPHIMURIUM, Strain/Indicator: TA1537, Metabolic Activation: NONE, Method: PREINCUBATION) is “inactive; negative”; the mutagenic call (Test System: AMES SALMONELLA TYPHIMURIUM, Strain/Indicator: TA1537, Metabolic Activation: RAT, LIVER, S-9, PHENOBARBITAL AND 5,6-BENZOFLAVONE, Method: PREINCUBATION) was “inactive; negative”; the mutagenic call (Test System: E.COLI, Strain/Indicator: WP2 UVRA, Metabolic Activation: NONE, Method: PREINCUBATION) was “inactive; negative”; the mutagenic call (Test System: E.COLI, Strain/Indicator: WP2 UVRA, Metabolic Activation: RAT, LIVER, S-9 PHENOBARBITAL AND 5,6-BENZOFLAVONE, Method: PREINCUBATION) was “inactive; negative”.
With `N#C[S-].N#C[S-].N#C[S-].N#C[S-].N#C[S-].N#C[S-].[K+].[K+].[Pt+4]`, the mutagenic call by setting is: under setting [4], “inactive; negative”; (Test System: AMES SALMONELLA TYPHIMURIUM, Strain/Indicator: TA98, Metabolic Activation: RAT, LIVER, S-9, AROCLOR 1254, Method: PREINCUBATION) “inactive; negative”; under setting [5], “inactive; negative”; (Test System: AMES SALMONELLA TYPHIMURIUM, Strain/Indicator: TA100, Metabolic Activation: RAT, LIVER, S-9, AROCLOR 1254, Method: PREINCUBATION) “inactive; negative”.
Consider `c1cc2c3c(c4c(ccc5ccccc54)cc3c1)[C@H]1O[C@@H]21`, for which the mutagenic call is, setting by setting: under setting [4], “active; positive”; under setting [1], “active; positive”; under setting [2], “active; positive”; (Test System: CHINESE HAMSTER OVARY, Strain/Indicator: V-79/6-THIOGUANINE, Metabolic Activation: NONE, Method: FLASK ASSAY) “active; positive”.
Regarding `Nc1c(N=Nc2ccc(S(=O)(=O)CCOS(=O)(=O)O)cc2)c(S(=O)(=O)O)cc2cc(S(=O)(=O)O)c(N=Nc3ccc(S(=O)(=O)CCOS(=O)(=O)O)cc3)c(O)c12`, the mutagenic call by setting is: (Test System: Ames Salmonella typhimurium, Strain/Indicator: TA98, Metabolic Activation: None, Method: Preincubation) “inactive; negative”; (Test System: Ames Salmonella typhimurium, Strain/Indicator: TA98, Metabolic Activation: Rat, Liver, S-9, Aroclor 1254, Method: Preincubation) “inactive; negative”; (Test System: Ames Salmonella typhimurium, Strain/Indicator: TA100, Metabolic Activation: None, Method: Preincubation) “inactive; negative”; (Test System: Ames Salmonella typhimurium, Strain/Indicator: TA100, Metabolic Activation: Rat, Liver, S-9, Aroclor 1254, Method: Preincubation) “inactive; negative”; (Test System: Ames Salmonella typhimurium, Strain/Indicator: TA102, Metabolic Activation: None, Method: Preincubation) “inactive; negative”; (Test System: Ames Salmonella typhimurium, Strain/Indicator: TA102, Metabolic Activation: Rat, Liver, S-9, Aroclor 1254, Method: Preincubation) “inactive; negative”. Also, the mutagenic call by setting is: (Test System: Ames Salmonella typhimurium, Strain/Indicator: TA1535, Metabolic Activation: None, Method: Preincubation) “inactive; negative”; (Test System: Ames Salmonella typhimurium, Strain/Indicator: TA1535, Metabolic Activation: Rat, Liver, S-9, Aroclor 1254, Method: Preincubation) “inactive; negative”.
